# Columns and labels:
# [1] = system: phenotypic expression markers (ectodermal, mesodermal, endodermal, embryonic); assay: Immunochemical and histochemical phenotypic analysis of human cell lines incubated with serum + insulin (I) + dexamethasone (D); format: cell-based
# Method: Additional immunochemical and histochemical studies were performed with a series of human cell lines. Human cells CF-NHDF2 (derived from person dermis) were propogated to various doubling numbers (cell doublings of between 12 and 47), and examined, as above, for multiple induced mesodermal, ectodermal, endodermal and embryonic lineages. Human cells CM-SkM2 and CF-SkM2, were similarly examined, after propogation to 12 cell doublings. TABLES 7-9 provides the results of examination of the human cells CF-NHDF2 at progressive cell doublings, under different growth conditions. TABLE 10 provides the results of examination of the human cells CM-SkM2, and CF-SkM2 at progressive cell doublings, under different growth conditions.
# Phenotypic Analysis. The cryopreserved cells were thawed and seeded at 1×10^3 cells per well of 1% gelatinized 96-well plates (Corning, Corning, N.Y.).15,16 The cell lines were incubated with CM only (non-induced) or CM+insulin and/or dexamethasone in a comparison/contrast analysis system to ascertain induced phenotypic expression.7,15 In this assay, insulin accelerates phenotypic expression of lineage-committed progenitor cells but has no effect on the induction of lineage-commitment and subsequent phenotypic expression in pluripotent cells.
# Cells were cultured for 30-56 days in CM, CM+[…] insulin, or CM+10^−6M Dexamethasone+/−insulin+1%, 5%, or 10% horse serum. […]
# pluripotent stem cells = assay: Proliferation and phenotypic responses to bioactive factors: pluripotent cells; format: cell-based
# From the text: Having access to mixed populations of progenitor stem cells, progenitor stem cell clones, and pluripotent stem cell clones permits one to address the influence of various bioactive factors (e.g. recombinant growth factors, purified compounds, and novel inductive factors) on the growth characteristics and phenotypic expression of these stem cells.
# Cryopreserved cells are thawed and plated in MSC-1 at 5, 10, or 20×10^3 cells per well of gelatinized 24-well plates following the standard protocol. Twenty-four hours after initial plating the medium is changed to testing medium (TM) 1 to 6 (TM-1, TM-2, TM-3, TM-4, TM-5, or TM-6). TM-1 to TM-4 consist of Ultraculture (cat. no. 12-725B, lot. nos. OMO455 [TM-1], 1M1724 [TM-2], 2M0420 [TM-3], or 2M0274 [TM-4], Bio-Whittaker, Walkersville, Md.), medium (EMEM or Opti-MEM 0.01 mM β-mercaptoethanol), and 1% (v/v) antibiotic-antimycotic, pH 7.4. TM-5 consists of 98% (v/v) medium, 1% (v/v) HS, and 1% (v/v) antibiotic-antimycotic, pH 7.4. TM-6 consists of 98.5% (v/v) medium, 0.5% (v/v) HS, and 1% (v/v) antibiotic-antimycotic, pH 7.4. […] Four testing media (TM#'s 1-4), each containing various concentrations of Ultraculture, were used as. […] The four Ultraculture-based testing media were: TM-1=15% (v/v) Ultraculture (Lot no. OMO455): 84% (v/v) medium: 1% (v/v) antibiotics; TM-2=15% (v/v) Ultraculture (Lot no. 1M1724): 84% (v/v) medium: 1% (v/v) antibiotics; TM-3=50% (v/v) Ultraculture (Lot no. 2M0420): 49% (v/v) medium: 1% (v/v) antibiotics; and TM-4=75% (v/v) Ultraculture (Lot no. 2M0274): 24% (v/v) medium: 1% (v/v) antibiotics. Pre-incubation for 24 hr in testing medium alone is used to wash out any potential synergistic components in the MSC-1 medium. Twenty-four hours later the testing medium is changed to one of the following. For controls, TM-1 to TM-6 alone is used. To identify clones of progenitor cells, the medium is replaced with TM-1 to TM-6 containing 2 μg/ml insulin (Sigma), an agent that accelerates the appearance of phenotypic expression markers in progenitor cells (TABLE 12). To identify clones of pluripotent cells, the medium is replaced with TM-1 to TM-6 containing 10^−10 to 10^−6 M dexamethasone (Sigma), a general non-specific lineage-inductive agent (TABLE 13). Control and treated cultures are propagated for an additional 30-45 days with medium changes every other day. Four culture wells are used per concentration per experiment. During the 0-45 day time period the cultures are examined subjectively for changes in morphological characteristics on a daily basis. Alterations in phenotypic expression are correlated with the days of treatment and associated insulin or dexamethasone concentrations. The experiment is then repeated utilizing these parameters to confirm objectively the phenotypic expression markers using established histological, functional/histochemical, ELICA/flow cytometry, and molecular assays (TABLE 13).
substance,measurement,setting,value
insulin,effect on morphology and antigen staining of NHDF2 and PAL3 cells,[1],No change in morphology or change in antigen staining
same,"Proliferation, Pluripotent: number of times the agent increased the DNA content per well versus its respective control",pluripotent stem cells,1 times
same,"activity on pluripotent and progenitor stem cells, in words",pluripotent stem cells; pluripotent and progenitor cells,"stimulated lineage-progression in all progenitor cells, but had no measurable effect on pluripotent cells"
same,"Phenotypic Expression, Pluripotent",pluripotent stem cells; presence and approximate distribution of differentiated phenotypes within the culture wells,0

# Source: patent publication US10160948B2, “Pluripotent embryonic-like stem cells, compositions, methods and uses thereof” (ABT HOLDING COMPANY, priority 1999, dated 2018)
